Results taken from the supplement of paper PMC10307832.

What was measured:
Assay in all cases: relative viability (nuclei count vs DMSO), 5 days (fraction); higher = more cells survive
BAM7 + Foretinib = compound: CCOC1=CC=CC=C1N=NC2=C(NN(C2=O)C3=NC(=CS3)C4=CC=CC=C4)C [BAM7] + COc1cc2c(Oc3ccc(NC(=O)C4(C(=O)Nc5ccc(F)cc5)CC4)cc3F)ccnc2cc1OCCCN1CCOCC1 [Foretinib] (partner 0.25 µM)
Summary of the method: (§1)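 Five library-drug doses in √10 steps were combined with a fixed anchor-drug dose, or a single drug was given alone, by pin tool to lung cancer cell lines in 1536-well plates the day after seeding. Nuclei were stained and counted after 5 days. Relative viability is the nuclei count in treated wells over that in vehicle wells, taken as the median of duplicate plates.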

[1] = compound: CCn1c(-c2nonc2N)nc2c(C#CC(C)(C)O)ncc(OC[C@H]3CCCNC3)c21 + Cc1cc(Nc2cc(N3CCN(C)CC3)nc(Sc3ccc(NC(=O)C4CC4)cc3)n2)n[nH]1 [Tozasertib] (partner 0.1 µM)
Summary of the method: as §1

[2] = compound: CCn1c(-c2nonc2N)nc2c(C#CC(C)(C)O)ncc(OC[C@H]3CCCNC3)c21 + O=C(c1cc(Cc2n[nH]c(=O)c3ccccc23)ccc1F)N1CCN(C(=O)C2CC2)CC1 [Olaparib] (partner 8 µM)
Summary of the method: as §1

BAM7 + Pictilisib = compound: CCOC1=CC=CC=C1N=NC2=C(NN(C2=O)C3=NC(=CS3)C4=CC=CC=C4)C [BAM7] + CS(=O)(=O)N1CCN(Cc2cc3nc(-c4cccc5[nH]ncc45)nc(N4CCOCC4)c3s2)CC1 [Pictilisib] (partner 1 µM)
Summary of the method: as §1

Cell Line | relative viability (BAM7 + Foretinib; first compound 0.5 µM) | relative viability (BAM7 + Foretinib; first compound 5 µM) | relative viability (BAM7 + Foretinib; first compound 15.81 µM) | relative viability (BAM7 + Foretinib; first compound 50 µM) | relative viability ([1]; first compound 0.01 µM) | relative viability ([1]; first compound 0.03162 µM) | relative viability ([1]; first compound 0.1 µM) | relative viability ([1]; first compound 0.3162 µM) | relative viability ([1]; first compound 1 µM) | relative viability ([2]; first compound 0.01 µM) | relative viability ([2]; first compound 0.03162 µM) | relative viability ([2]; first compound 0.1 µM) | relative viability ([2]; first compound 0.3162 µM) | relative viability ([2]; first compound 1 µM) | relative viability (BAM7 + Pictilisib; first compound 0.5 µM) | relative viability (BAM7 + Pictilisib; first compound 5 µM) | relative viability (BAM7 + Pictilisib; first compound 15.81 µM) | relative viability (BAM7 + Pictilisib; first compound 50 µM)
NCI-H2342 | 1.01 | 1.04 | 0.921 | 1.03 | 0.521 | 0.588 | 0.466 | 0.572 | 0.612 | 0.517 | 0.42 | 0.486 | 0.482 | 0.44 |  |  |  | 
SK-MES-1 | 0.913 | 1.06 | 0.937 | 1.08 | 0.858 | 0.835 | 0.894 | 0.854 | 0.856 | 0.658 | 0.72 | 0.678 | 0.649 | 0.702 | 0.432 | 0.455 | 0.369 | 0.358
HCC-366 | 0.92 | 0.849 | 0.94 | 0.836 | 0.135 | 0.12 | 0.194 | 0.111 | 0.129 | 0.421 | 0.366 | 0.359 | 0.321 | 0.354 | 0.163 | 0.163 | 0.141 | 0.0939
201T | 0.789 | 0.948 | 0.832 | 0.823 | 0.954 | 0.948 | 0.914 | 0.933 | 0.963 | 0.855 | 0.861 | 0.838 | 0.801 | 0.827 | 0.637 | 0.625 | 0.593 | 0.69
HCC-827 | 0.967 | 1.05 | 1.03 | 0.998 | 0.391 | 0.47 | 0.383 | 0.449 | 0.43 | 0.602 | 0.671 | 0.661 | 0.622 | 0.683 | 0.969 | 0.908 | 0.877 | 0.977
NCI-H647 | 1.4 | 1.2 | 1.16 | 1.21 | 0.26 | 0.326 | 0.255 | 0.312 | 0.396 | 0.467 | 0.775 | 0.486 | 0.561 | 0.517 | 0.49 | 0.511 | 0.478 | 0.541
NCI-H2023 | 0.925 | 0.783 | 0.803 | 0.964 | 0.339 | 0.379 | 0.341 | 0.305 | 0.343 | 0.501 | 0.454 | 0.437 | 0.381 | 0.475 | 0.277 | 0.245 | 0.3 | 0.297
NCI-H520 | 0.736 | 0.825 | 0.767 | 0.804 | 0.41 | 0.482 | 0.323 | 0.358 | 0.335 | 0.337 | 0.341 | 0.236 | 0.194 | 0.169 | 0.273 | 0.3 | 0.264 | 0.324
RERF-LC-KJ | 0.821 | 0.832 | 0.81 | 0.833 | 0.441 | 0.516 | 0.403 | 0.477 | 0.416 | 1 | 0.87 | 0.854 | 0.854 | 0.797 | 0.551 | 0.496 | 0.492 | 0.515
A-427 | 1.11 | 1.07 | 1.05 | 1.05 | 0.243 | 0.227 | 0.251 | 0.24 | 0.188 | 0.737 | 0.203 | 0.75 | 0.683 | 0.709 | 0.557 | 0.75 | 0.676 | 0.72
NCI-H441 | 1.09 | 1.13 | 0.767 | 1.14 | 0.699 | 0.53 | 0.538 | 0.57 | 0.56 | 0.554 | 0.726 | 0.529 | 0.551 | 0.567 | 0.433 | 0.47 | 0.528 | 0.519
NCI-H1703 | 0.329 | 0.42 | 0.393 | 0.326 |  |  |  |  |  | 0.406 | 0.506 | 0.468 | 0.587 | 0.31 | 0.23 | 0.262 |  | 0.256
NCI-H1792 |  |  |  |  |  |  |  |  |  | 0.53 | 0.502 | 0.473 | 0.374 | 0.589 | 0.282 | 0.258 | 0.228 | 0.289
Calu-6 | 0.939 | 0.951 | 0.891 | 0.893 |  |  |  |  |  | 0.546 | 0.589 | 0.605 | 0.558 | 0.644 | 1.01 | 0.98 | 0.893 | 0.823
SK-LU-1 | 0.875 | 0.925 | 0.72 | 0.857 | 0.335 | 0.387 | 0.349 | 0.306 | 0.344 | 0.49 | 0.723 | 0.482 | 0.43 | 0.461 | 0.502 | 0.658 | 0.678 | 0.737
PC-3 [JPC-3] | 0.923 | 0.948 | 0.819 | 0.915 | 0.847 | 0.943 | 0.833 | 0.827 | 0.859 | 1.07 |  | 1.15 | 1.03 | 1.09 | 0.693 | 0.736 | 0.612 | 0.631
EMC-BAC-2 | 0.974 | 1.04 | 0.985 | 1.05 | 0.297 | 0.287 | 0.268 | 0.255 | 0.262 | 0.457 | 0.501 | 0.503 | 0.454 | 0.468 | 0.521 | 0.542 | 0.595 | 0.559
LK-2 | 1.15 | 1.23 | 1.18 | 1.29 | 0.165 | 0.171 |  |  | 0.184 | 0.641 | 0.566 | 0.645 | 0.865 | 0.72 | 0.595 | 0.663 | 0.598 | 0.546
NCI-H2126 | 1.18 | 1.05 | 0.889 | 0.923 | 0.829 | 0.885 | 0.806 | 0.817 | 0.863 | 0.917 | 0.927 | 0.977 | 0.893 | 0.95 | 0.514 | 0.448 | 0.507 | 0.479
